Experimental data taken from ChEMBL document CHEMBL1201862, “PubChem BioAssay data set” (2004).
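Cultured in 96-well plates, cells were exposed to test compound for 48 hours across five concentrations. At the GI50, growth is halved.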 Calls of active or inactive are those of the source. Rule as the data show it: active = GI50 up to about 1.1 µM and inactive = higher.

What was measured:
Assay in all cases: NCI anticancer screen, dose series, 48 h
IGROV-1 = system: IGROV-1
HOP-62 = system: HOP-62
COLO 205 = system: COLO 205
PC-3 = system: PC-3
MDA-MB-231 = system: MDA-MB-231
NCI-H23 = system: NCI-H23
MCF7 = system: MCF7
RPMI-8226 = system: RPMI-8226
M14 = system: M14
SK-OV-3 = system: SK-OV-3
OVCAR-8 = system: OVCAR-8
SF-539 = system: SF-539
SNB-75 = system: SNB-75
MDA-N = system: MDA-N
OVCAR-3 = system: OVCAR-3
786-0 = system: 786-0
K562 = system: K562
SW-620 = system: SW-620
A549 = system: A549
HCT-116 = system: HCT-116

Structure (SMILES) | GI50 (IGROV-1) | GI50 (HOP-62) | GI50 (COLO 205) | GI50 (PC-3) | GI50 (MDA-MB-231) | GI50 (NCI-H23) | GI50 (MCF7) | GI50 (RPMI-8226) | GI50 (M14) | GI50 (SK-OV-3) | GI50 (OVCAR-8) | GI50 (SF-539) | GI50 (SNB-75) | GI50 (MDA-N) | GI50 (OVCAR-3) | GI50 (786-0) | GI50 (K562) | GI50 (SW-620) | GI50 (A549) | GI50 (HCT-116)
O=c1n(CC2CO2)c(=O)n(CC2CO2)c(=O)n1CC1CO1 (stereo not given) [TEROXIRONE] | 39.2 µM (inactive) | 20.3 µM (inactive) | 14.3 µM (inactive) | 25 µM (inactive) | 26.4 µM (inactive) | 16.7 µM (inactive) | 11.1 µM (inactive) | 39.4 µM (inactive) | 9.27 µM (inactive) | 36.1 µM (inactive) | 33.3 µM (inactive) | 7.76 µM (inactive) | 25.1 µM (inactive) | 20.8 µM (inactive) | 32.7 µM (inactive) | 6.22 µM (inactive) | 22.8 µM (inactive) | 34 µM (inactive) | 13.7 µM (inactive) | 22.1 µM (inactive)
COC(=O)c1cc(/C=C2\Cc3cc4c(cc3C2=O)CCC4)cc2c1CCC2 | > 100 µM (inactive) | > 100 µM (inactive) | > 100 µM (inactive) | > 100 µM (inactive) | > 100 µM (inactive) | > 100 µM (inactive) | > 100 µM (inactive) | > 100 µM (inactive) | > 100 µM (inactive) | > 100 µM (inactive) | > 100 µM (inactive) | > 100 µM (inactive) | > 100 µM (inactive) | > 100 µM (inactive) | > 100 µM (inactive) | > 100 µM (inactive) | > 100 µM (inactive) | > 100 µM (inactive) | > 100 µM (inactive) | 63 µM (inactive)
CC(C)(CCC(C)(C)c1ccccc1)c1ccccc1 | 24.9 µM (inactive) | 17.4 µM (inactive) | 18.1 µM (inactive) | 30.8 µM (inactive) | 16.7 µM (inactive) | 18.2 µM (inactive) | 17.9 µM (inactive) | 15.1 µM (inactive) | 18.7 µM (inactive) | 27.1 µM (inactive) | 27 µM (inactive) | 21.1 µM (inactive) | 18 µM (inactive) | 22.2 µM (inactive) | 16.3 µM (inactive) | 15.7 µM (inactive) | 21.8 µM (inactive) | 17.2 µM (inactive) | 28.8 µM (inactive) | 14.7 µM (inactive)
CCC(O)(Cc1ccc(OC)cc1)c1ccc(OC)cc1 (stereo not given) | > 100 µM (inactive) | > 100 µM (inactive) | > 100 µM (inactive) | > 100 µM (inactive) | > 100 µM (inactive) | > 100 µM (inactive) | > 100 µM (inactive) | > 100 µM (inactive) | > 100 µM (inactive) | > 100 µM (inactive) | > 100 µM (inactive) | > 100 µM (inactive) | > 100 µM (inactive) | > 100 µM (inactive) | > 100 µM (inactive) | > 100 µM (inactive) | > 100 µM (inactive) | > 100 µM (inactive) | > 100 µM (inactive) | > 100 µM (inactive)
CC1=C2CC(C)(C)/C=C\C(=O)/C(C)=C\C3=C[C@H](C)C[C@]3(O2)C1=O | 1.56 µM (inactive) | 6.43 µM (inactive) | 0.902 µM (active) | 2.02 µM (inactive) | 1.05 µM (active) | 1.08 µM (active) | 0.343 µM (active) | 0.326 µM (active) | 0.494 µM (active) | 9.51 µM (inactive) | 0.9 µM (active) | 0.946 µM (active) | 4.1 µM (inactive) | 0.914 µM (active) | 0.376 µM (active) | 0.516 µM (active) | 1.51 µM (inactive) | 0.41 µM (active) | 4.47 µM (inactive) | 0.443 µM (active)
CNc1nc2n(CCO)c(-c3ccccc3)c(-c3ccccc3)nc-2c(=O)n1 | > 50 µM (inactive) | 22.8 µM (inactive) | > 50 µM (inactive) | > 50 µM (inactive) | > 50 µM (inactive) | > 50 µM (inactive) | > 50 µM (inactive) | > 50 µM (inactive) | > 50 µM (inactive) | > 50 µM (inactive) | > 50 µM (inactive) | > 50 µM (inactive) | > 50 µM (inactive) | > 50 µM (inactive) | 14.8 µM (inactive) | > 50 µM (inactive) | > 50 µM (inactive) | > 50 µM (inactive) | > 50 µM (inactive) | > 50 µM (inactive)
COc1ccc2c(c1OC)C(=O)O[C@@H]2[C@H]1c2cc3c(cc2CCN1C)OCO3 | > 100 µM (inactive) | > 100 µM (inactive) | > 100 µM (inactive) | > 100 µM (inactive) | > 100 µM (inactive) | > 100 µM (inactive) | > 100 µM (inactive) | > 100 µM (inactive) | > 100 µM (inactive) | > 100 µM (inactive) | > 100 µM (inactive) | > 100 µM (inactive) | > 100 µM (inactive) | > 100 µM (inactive) | > 100 µM (inactive) | > 100 µM (inactive) | > 100 µM (inactive) | > 100 µM (inactive) | > 100 µM (inactive) | > 100 µM (inactive)
O=[N+]([O-])c1ccc(NN=C2c3ccccc3Cc3ccccc32)c([N+](=O)[O-])c1 | 4.97 µM (inactive) | 6.92 µM (inactive) | 4.52 µM (inactive) | 4.95 µM (inactive) | 24.4 µM (inactive) | 15 µM (inactive) | 4.23 µM (inactive) | 8.91 µM (inactive) | 5.81 µM (inactive) | 7.74 µM (inactive) | 45.8 µM (inactive) | 8.79 µM (inactive) | 4.59 µM (inactive) | 1.88 µM (inactive) | 2.39 µM (inactive) | 10.9 µM (inactive) | 4.32 µM (inactive) | 5.85 µM (inactive) | > 21.1 µM (inactive) | 5.37 µM (inactive)
CC(=O)Oc1c(C)cc2c(c1C)C(C)CN2C(C)=O (stereo not given) | > 100 µM (inactive) | > 100 µM (inactive) | > 100 µM (inactive) | > 100 µM (inactive) | > 100 µM (inactive) | > 100 µM (inactive) | > 100 µM (inactive) | > 100 µM (inactive) | > 100 µM (inactive) | > 100 µM (inactive) | > 100 µM (inactive) | > 100 µM (inactive) | 94.2 µM (inactive) | > 100 µM (inactive) | > 100 µM (inactive) | > 100 µM (inactive) | > 100 µM (inactive) | > 100 µM (inactive) | > 100 µM (inactive) | > 100 µM (inactive)
c1ccc2c(c1)c1c(n2CCOCCN2CCCCC2)CCCC1 | 13.9 µM (inactive) | 15.1 µM (inactive) | 11.1 µM (inactive) | 9.04 µM (inactive) | 11.8 µM (inactive) | 15.2 µM (inactive) | 13.7 µM (inactive) | 9.29 µM (inactive) | 12.8 µM (inactive) | 18.7 µM (inactive) | 14 µM (inactive) | 16.6 µM (inactive) | 11.6 µM (inactive) | 14.8 µM (inactive) | 9.75 µM (inactive) | 13.4 µM (inactive) | 6.18 µM (inactive) | 17.3 µM (inactive) | 15.1 µM (inactive) | 12.5 µM (inactive)
